These results are taken from patent publication US20260085047A1, “TRIPHENYLAZOLE COMPOUND” (SHIRATORI PHARMACEUTICAL CO., LTD., priority 2022, published 2026).

The target of one test is T1, GST-FABP7 (Homo sapiens, UniProt O15540, K110R).
T1 construct: made in house; host or cells: E. coli BL21 (DE3)
T1 sequence (O15540 1-132 K110R): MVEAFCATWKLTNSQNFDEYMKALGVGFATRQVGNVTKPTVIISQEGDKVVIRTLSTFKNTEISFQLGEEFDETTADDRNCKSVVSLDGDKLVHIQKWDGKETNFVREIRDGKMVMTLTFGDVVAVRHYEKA
Briefly: Evaluation of FABP ligand affinity using ANS (GST-FABP7). It is filed as binding, mouse. As to conditions: ANS fluorescence displacement; mean±SE of three measurements; read-out: Kd value of FABP for each ligand, GST-FABP7. The procedure: (§1) GST-FABP3, GST-FABP4, GST-FABP5, and GST-FABP7 were each expressed in E. coli [BL21 (DE3) strain], and then affinity purification was performed using a glutathione column.
(§2) Cloning of GST-FABP3, GST-FABP4, GST-FABP5 and GST-FABP7 vectors was performed by the following method. After reverse transcription of mRNA isolated from mouse heart into cDNA, the FABP3 gene (RefSeqID: NM_010174.1) and FABP4 gene (RefSeqID: NM_024406.2) were each amplified by PCR. These cDNAs were each inserted between the BamHI/EcoRI cleavage sites of a pGEX-2T vector (GE HealthCare Japan, Tokyo) using a DNA ligation kit (Takara Bio, Kusatsu) and an In-fusion kit (Takara Bio USA, CA, USA) to prepare vectors.
(§3) Purification of GST-binding proteins was performed using a GST purification kit (Takara Bio USA). After the E. coli were collected by centrifugation, the provided extraction buffer and aluminum oxide powder were added, and the mixture was crushed in a mortar. The centrifuged supernatant was added to the provided glutathione column and allowed to stand on ice for 30 minutes. The supernatant in the column was then discarded, and washing was performed with extraction buffer, followed by elution with elution buffer containing glutathione. The protein concentration of the elution product was calculated from the absorbance at 280 nm and then used for the ANS assay. 1-anilinonaphthalene-8-sulfonic acid (ANS, final concentration: […], in a solution of 10 mM KH2PO4 and 40 mM KCl at pH 7.4), which binds to FABP proteins and emits fluorescence, and FABP proteins (final concentration: […]), as well as various ligands at concentrations of 0 nM, 100 nM, 1,000 nM, 2,000 nM, and 4,000 nM (final) were incubated for 2 min, and then the fluorescence of ANS was measured (Ex/Em=355 nm/460 nm). The fluorescence intensity at each ligand concentration was converted to a relative value (%) to the ANS fluorescence intensity in the absence of ligand, and then the dissociation constant Kd (nM) was calculated by […] using the following equation.
(§4) The Kd values in the above table are indicated as the mean±SE of three measurements. […] Example Compounds 1 to 5 in the table may also be referred to as Compounds 1 to 5, respectively.

Test [1] relates to ICR mice, focal cerebral ischemia (tMCAO). Briefly: Cerebral neuroprotection in focal cerebral ischemia model (tMCAO). The test is classed as in vivo, mouse. As to conditions: tMCAO 2 hours, 0.3 mg/kg orally after reperfusion. The protocol:
Male ICR mice (5 weeks old, 25-30 g) were purchased from Japan SLC, Inc. (Shizuoka, Japan). The animals were reared under constant temperature and humidity conditions, in a 12-hour light/dark cycle (light on: 09:00-21:00), and fed ad libitum. All mice were anesthetized with a combination of 0.3 mg/kg medetomidine, 4.0 mg/kg midazolam, and 5.0 mg/kg butorphanol. A silicone-coated 6-0 suture (Doccol Corporation, USA) was inserted from the right external carotid artery into the internal carotid artery up to the origin of the middle cerebral artery, and left in place for 2 hours, then the suture was removed and reperfusion was performed to prepare a mouse model of focal cerebral ischemia (tMCAO). Mice in the sham surgery group underwent the same treatment except for the insertion of the suture. […] Regional cerebral blood flow (rCBF) was monitored by Laser-Doppler flowmetry (FLOC1, OMEGAWAVE, Tokyo, Japan) to confirm whether the right hemisphere was ischemic or not. […] Infarct volume was measured using ImageJ software and expressed as a percentage of the total hemisphere (corresponding to B in FIG. 19, E in FIG. 21, and H in FIG. 23. The vertical axis Neurological score in C of FIG. 19, F of FIG. 21, and I of FIG. 23 represents the neurological deficit. The vertical axis Survival rate (%) in FIG. 24 corresponds to the mouse survival rate). […]

The test system of test [2] is MPTP-treated C57BL6 N mice (PD model animals). Description: Passive avoidance task in PD model animals (MPTP). The test is classed as in vivo, mouse. As to conditions: 0.05, 0.1 and 0.3 mg/kg p.o. once daily for two weeks from Day 20, Day 34, FIG. 2.
Test [3] has the same test system. Briefly: Novel object recognition task in PD model animals (MPTP). As to conditions: 0.03, 0.1 and 0.3 mg/kg p.o. once daily for two weeks, Day 34, FIG. 3. The test is classed as in vivo, mouse. The protocol:
In the novel object recognition task, objects of the same shape were placed to be memorized by the mice in the training trial, and in the test trial, one of the objects was replaced with a novel object, and the rate of contact with both objects (corresponding to the vertical axis Discrimination index (%) in FIG. 3) was evaluated.

Test [4] shares this test system. Briefly: Beam walking task in PD model animals (MPTP). The test is classed as in vivo, mouse. As to conditions: Example Compound 2 0.03, 0.1, 0.3 mg/kg or LIGAND 1 0.3 mg/kg, Day 34, FIG. 5. The procedure: In the beam walking task, the mice were placed on a thin board and allowed to walk, and the number of foot slips before reaching the goal box (corresponding to the vertical axis Number of foot slips in FIG. 5) was measured.

For the next test, the target named is T2, GST-FABP4.
T2 construct: made in house; host or cells: E. coli BL21 (DE3)
T2 sequence (P15090 whole entry): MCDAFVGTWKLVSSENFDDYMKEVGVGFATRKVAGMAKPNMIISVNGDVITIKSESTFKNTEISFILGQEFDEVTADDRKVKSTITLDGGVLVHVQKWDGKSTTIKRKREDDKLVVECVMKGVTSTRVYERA
Description: Evaluation of FABP ligand affinity using ANS (GST-FABP4). It is filed as binding, mouse. As to conditions: ANS fluorescence displacement; mean±SE of three measurements; read-out: Kd value of FABP for each ligand, GST-FABP4. The protocol:
as §1, §2, §3, §4

Another test deals with T3, GST-FABP3.
T3 construct: made in house; host or cells: E. coli BL21 (DE3)
T3 sequence (P05413 with tags, fused parts or gaps): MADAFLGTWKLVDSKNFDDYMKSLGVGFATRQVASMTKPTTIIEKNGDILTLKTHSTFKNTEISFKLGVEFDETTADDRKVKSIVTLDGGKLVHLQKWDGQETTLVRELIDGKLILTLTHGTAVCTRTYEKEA
Description: Evaluation of FABP ligand affinity using ANS (GST-FABP3). The test is classed as binding, mouse. As to conditions: ANS fluorescence displacement; mean±SE of three measurements; read-out: Kd value of FABP for each ligand, GST-FABP3.

The subject of test [5] is dopaminergic neurons (TH+ cells) in SNpc and VTA. Briefly: Dopaminergic neuroprotection: TH-positive cells in brain sections of PD model animals. The test is classed as in vivo, mouse. Particulars: MPTP mice; Example Compound 2 0.1, 0.3, 1.0 mg/kg or LIGAND 1 0.3 mg/kg; Day 34; FIGS. 6 to 9.
Description: (§5) The results for the substantia nigra region are shown in FIGS. 6, 7, 10, 11, 14, and 15, and for the ventrotegmental area in FIGS. 8, 9, 12, 13, 16, and 17 (the vertical axis Number of TH^+ cells in FIGS. 6 and 8 corresponds to the number of dopaminergic neurons. The vertical axis Number of double-positive cells/TH^+ positive cells (%) in FIGS. 11 and 13 corresponds to the percentage of dopaminergic neurons that contain phosphorylated α-synuclein. The vertical axis Triple-positive cells/TH-positive cells in FIGS. 15 and 17 corresponds to the percentage of dopaminergic neurons that contain both FABP3 and phosphorylated α-synuclein).
Another test has as its target T4, GST-FABP5.
T4 construct: made in house; host or cells: E. coli BL21 (DE3)
Description: Evaluation of FABP ligand affinity using ANS (GST-FABP5). As to conditions: ANS fluorescence displacement; mean±SE of three measurements; read-out: Kd value of FABP for each ligand, GST-FABP5. The test is classed as binding, mouse. The procedure:
as §1, §2, §3

The subject of test [6] is FABP3 and phosphorylated α-synuclein. Briefly: Double staining for phosphorylated α-synuclein and FABP3 in dopaminergic neurons of PD model animals. The test is classed as in vivo, mouse. Particulars: MPTP mice.
Description: as §5
Test [7] has as its system phosphorylated α-synuclein. Briefly: Phosphorylated α-synuclein staining in dopaminergic neurons of PD model animals. As to conditions: MPTP mice.
Description: as §5
Test [8] deals with MPTP-treated C57BL6 N mice (PD model animals). Description: Rotarod task in PD model animals (MPTP). The test is classed as in vivo, mouse. As to conditions: Example Compound 2 0.03, 0.1, 0.3 mg/kg or LIGAND 1 0.3 mg/kg, Day 34, 20 rpm, FIG. 4. In general terms: Falling from the rotarod earlier than controls is read as motor impairment.

Bounds are passed on as bounds.

T4 sequence (Q01469 whole entry): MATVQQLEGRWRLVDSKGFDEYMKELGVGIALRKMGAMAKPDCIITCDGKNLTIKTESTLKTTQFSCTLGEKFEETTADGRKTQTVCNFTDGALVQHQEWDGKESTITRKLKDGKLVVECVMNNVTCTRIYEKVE

Usually Kd stands for the constant that tells how readily two partners part at equilibrium. `O=C(O)CCCOc1ccc(F)cc1-c1cc(-c2ccccc2C(F)(F)F)n(-c2ccccc2)n1` [Example Compound 1, 4-(4-fluoro-2-(1-phenyl-5-(2-(trifluoromethyl)phenyl)-1H-pyrazol-3-yl)phenoxy)butanoic acid]: the Kd on GST-FABP7 is at least 1 mM. The “Mouse survival rate compared to Vehicle mice” value in [1] (FIG. 24) is listed as “improved”. In test [1] (TTC staining), the “Cerebral infarct volume compared to Vehicle mice” value is recorded as “reduced”. In [2], the “Passive avoidance task: time until entering the dark room (Latency)” value is listed as “concentration-dependent prolongation of the waiting time”.

For the compound `O=C(O)CCCOc1ccccc1-c1cc(-c2ccccc2C(F)(F)F)n(-c2ccccc2)n1` [Example Compound 2, 4-(2-(1-phenyl-5-(2-(trifluoromethyl)phenyl)-1H-pyrazol-3-yl)phenoxy)butanoic acid], the Kd worked out at 0.00205 ± 3.52e-05 mM on GST-FABP7, 104 ± 36.3 nM at GST-FABP4, 11.7 ± 18.8 nM at GST-FABP3 and 189 ± 24.5 nM on GST-FABP5. Besides, in test [3], the “Novel object recognition task: rate of contact with novel and known objects (Discrimination index)” value was “trend of improvement in cognitive function”. The “Beam walking task: number of foot slips, motor function” value in [4] is “improvement in motor function was confirmed”. Further, in test [5], the “Number of TH+ cells (dopaminergic neurons) in SNpc and VTA” value is on record as “suppresses the decrease in dopaminergic neurons”. For the same compound, the “Localization of FABP3 and phosphorylated α-synuclein in dopaminergic neurons” value in test [6] (0.1, 0.3, 1.0 mg/kg, Day 34, SNpc and VTA, FIGS. 14 to 17) is on record as “reduced”. Moreover, the “Interaction between phosphorylated α-synuclein and FABP3 in dopaminergic neurons, substantia nigra (SNpc)” value in [6] (brain sections of SNpc, FIG. 15) is “inhibited”. The “Interaction between phosphorylated α-synuclein and FABP3 in dopaminergic neurons, ventrotegmental area (VTA)” value in test [6] (brain sections of VTA, FIG. 17) is reported as “inhibited”. Moreover, the “Phosphorylation level of α-synuclein in dopaminergic neurons” value in [7] (0.1, 0.3, 1.0 mg/kg, Day 34, SNpc and VTA, FIGS. 10 to 13) is listed as “reduced”. Also, the “Protection of dopaminergic neurons from the toxicity of phosphorylated α-synuclein, substantia nigra (SNpc)” value in test [7] (brain sections of SNpc, FIG. 11) was “protected dopaminergic neurons”. In [7] (brain sections of VTA, FIG. 13), the “Protection of dopaminergic neurons from the toxicity of phosphorylated α-synuclein, ventrotegmental area (VTA)” value is listed as “protected dopaminergic neurons”. The “Rotarod task: time until the mice fell (Latency), motor function” value in [8] is “improvement in motor function was confirmed”.

As to `O=C(O)CCCOc1ccccc1-c1nc(-c2ccccc2C(F)(F)F)n(-c2ccccc2)n1` [Example Compound 3, 4-(2-(1-phenyl-5-(2-(trifluoromethyl)phenyl)-1H-1,2,4-triazol-3-yl)phenoxy)butanoic acid], the Kd is at least 1 mM at GST-FABP7, 369 ± 44.1 nM at GST-FABP4 and 160 ± 34.1 nM on GST-FABP3.

Regarding `CC(C)c1ccc(-n2nc(-c3cc(F)ccc3OCCCC(=O)O)cc2-c2ccccc2C(F)(F)F)cc1` [Example Compound 4, 4-(4-fluoro-2-(1-(4-isopropylphenyl)-5-(2-(trifluoromethyl)phenyl)-1H-pyrazol-3-yl)phenoxy)butanoic acid], the Kd at GST-FABP7 was at least 1 mM; on GST-FABP4, 2180 ± 458 nM; on GST-FABP3, 113 ± 3.1 nM; on GST-FABP5, 1350 ± 204 nM.

`CC(C)c1ccc(-n2nc(-c3ccccc3OCCCC(=O)O)cc2-c2ccccc2C(F)(F)F)cc1` [Example Compound 5, 4-(2-(1-(4-isopropylphenyl)-5-(2-(trifluoromethyl)phenyl)-1H-pyrazol-3-yl)phenoxy)butanoic acid]: the Kd is at least 1 mM on GST-FABP7, 434 ± 10.9 nM at GST-FABP4, 54.8 ± 4.5 nM on GST-FABP3 and 1820 ± 392 nM at GST-FABP5.
